15 compounds from patent US11434242B2, “Dopamine-b-hydroxylase inhibitors” (BIAL-PORTELA & Cª, S.A., priority 2017, dated 2022) can be followed below.

Marks after values point to notes of the source that are not given here.

The target in the assay is T1, Dopamine beta hydroxylase (Homo sapiens, UniProt P09172).
T1 construct: 125 μl of plasma; tissue Instituto Português do Sangue Transplantação; host or cells: human plasma from healthy donors
T1 sequence (P09172 40-617 limits assumed): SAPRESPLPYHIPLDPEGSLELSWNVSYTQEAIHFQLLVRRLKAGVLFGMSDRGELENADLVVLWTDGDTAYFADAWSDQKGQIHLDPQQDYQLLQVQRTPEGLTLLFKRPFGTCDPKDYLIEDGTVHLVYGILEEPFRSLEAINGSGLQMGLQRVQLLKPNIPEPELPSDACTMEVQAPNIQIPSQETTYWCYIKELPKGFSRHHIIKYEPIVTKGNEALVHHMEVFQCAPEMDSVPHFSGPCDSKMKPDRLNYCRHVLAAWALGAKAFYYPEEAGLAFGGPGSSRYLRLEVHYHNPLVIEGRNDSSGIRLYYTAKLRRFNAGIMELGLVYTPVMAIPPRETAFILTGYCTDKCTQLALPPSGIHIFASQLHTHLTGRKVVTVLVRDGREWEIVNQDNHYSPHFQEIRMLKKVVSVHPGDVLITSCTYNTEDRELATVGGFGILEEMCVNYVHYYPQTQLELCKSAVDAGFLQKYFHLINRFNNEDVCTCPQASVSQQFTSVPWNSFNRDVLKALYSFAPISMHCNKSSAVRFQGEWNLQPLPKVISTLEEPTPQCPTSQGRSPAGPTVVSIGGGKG
In words: Dopamine beta hydroxylase activity in human plasma. The class given is biochemical. As to conditions: for Plasma (1 μM), activity in % of control: inhibitor 1 μM. The method in brief: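 Healthy-donor human plasma pre-incubated 10 min at 37° C with compound at final 10, 100 or 1000 nM in pH 5.0 acetate buffer with ascorbate, fumarate, pargyline, N-ethylmaleimide, catalase and copper sulfate. Tyramine substrate then added for 45 min; octopamine formed was isolated by SCX cartridge, periodate-converted and read at 330 nm; activity given as % control.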

For `Cl.Fc1cc(F)c(F)c([C@H]2Cc3c(CCN4CCCC4)[nH]c(=S)n3C2)c1F` [Example 198, (R)-1-(2-(pyrrolidin-1-yl)ethyl)-6-(2,3,5,6-tetrafluorophenyl)-2,5,6,7-tetrahydro-3H-pyrrolo[1,2-c]imidazole-3-thione Hydrochloride], the “Plasma (0.01 μM), activity in % of control” value (inhibitor 0.01 μM) is 52.2 % of control. Further, the “Plasma (0.01 μM), activity in % of control, re-test (asterisked)” value (inhibitor 0.01 μM, re-tested under the same experimental conditions, asterisked data believed to be correct) is reported as 84.5* % of control. Moreover, the “Plasma (0.1 μM), activity in % of control” value (inhibitor 0.1 μM) was 11.1 % of control. Moreover, the “Plasma (0.1 μM), activity in % of control, re-test (asterisked)” value (inhibitor 0.1 μM, re-tested under the same experimental conditions, asterisked data believed to be correct) was 99.1* % of control.

In the case of `F.Fc1ccc(Cl)cc1[C@]12C[C@H]1c1c(CCN3CCCCC3)[nH]c(=S)n1C2` [Example 194, (5aS,6aR)-5a-(5-chloro-2-fluorophenyl)-1-(2-(piperidin-1-yl)ethyl)-5,5a,6,6a-tetrahydrocyclopropa[3,4]pyrrolo[1,2-c]imidazole-3(2H)-thione Hydrofluoride], where the note is “inhibitor 0.01 μM”, the “Plasma (0.01 μM), activity in % of control” value is reported as 82.9 % of control. Besides, the “Plasma (0.1 μM), activity in % of control” value (inhibitor 0.1 μM) is 62.4 % of control.

On to `Fc1cc(F)c(F)c([C@H]2Cc3c(CCc4ccccn4)[nH]c(=S)n3C2)c1F` [Example 213, (R)-1-(2-(pyridin-2-yl)ethyl)-6-(2,3,5,6-tetrafluorophenyl)-2,5,6,7-tetrahydro-3H-pyrrolo[1,2-c]imidazole-3-thione], for which, where the note is “inhibitor 0.01 μM”, the “Plasma (0.01 μM), activity in % of control” value was 105.9 % of control. For the same compound, under “inhibitor 0.1 μM”, the “Plasma (0.1 μM), activity in % of control” value was 66.6 % of control.

As for `CS(=O)(=O)NC(=O)Cc1[nH]c(=S)n2c1C[C@@H](c1c(F)ccc(Br)c1F)C2` [Example 20, (S)-2-(6-(3-bromo-2,6-difluorophenyl)-3-thioxo-2,5,6,7-tetrahydro-3H-pyrrolo[1,2-c]imidazol-1-yl)-N-(methylsulfonyl)acetamide], the “Plasma (1 μM), activity in % of control” value is given as 2.6 % of control. For the same compound, for the setting “inhibitor 0.1 μM”, the “Plasma (0.1 μM), activity in % of control” value is 31.0 % of control.

As for `N#C/N=C(/NCc1[nH]c(=S)n2c1C[C@@H](c1c(F)ccc(Br)c1F)C2)N1CCCC1` [Example 225, (S,Z)—N-((6-(3-bromo-2,6-difluorophenyl)-3-thioxo-2,5,6,7-tetrahydro-3H-pyrrolo[1,2-c]imidazol-1-yl)methyl)-N′-cyanopyrrolidine-1-carboximidamide], the “Plasma (0.01 μM), activity in % of control” value (inhibitor 0.01 μM) was 65.3 % of control. The “Plasma (0.1 μM), activity in % of control” value (inhibitor 0.1 μM) is given as 12.5 % of control.

As for `O=C(O)Cc1[nH]c(=S)n2c1C[C@H](c1c(F)cccc1F)C2` [Example 18, (R)-2-(6-(2,6-difluorophenyl)-3-thioxo-2,5,6,7-tetrahydro-3H-pyrrolo[1,2-c]imidazol-1-yl)acetic Acid], the “Plasma (1 μM), activity in % of control” value is reported as 19.8 % of control. Further, the “Plasma (0.1 μM), activity in % of control” value (inhibitor 0.1 μM) is recorded as 81.0 % of control.

As to `Cn1c(CC(=O)N2CCCCC2)c2n(c1=S)C[C@@]1(c3cc(Cl)ccc3F)C[C@@H]21` [Example 311, 2-((5aS,6aR)-5a-(5-chloro-2-fluorophenyl)-2-methyl-3-thioxo-2,3,5,5a,6,6a-hexahydrocyclopropa[3,4]pyrrolo[1,2-c]imidazol-1-yl)-1-(piperidin-1-yl)ethan-1-one], the “Plasma (0.01 μM), activity in % of control” value (inhibitor 0.01 μM) is 87.2 % of control. Also, for the setting “inhibitor 0.1 μM”, the “Plasma (0.1 μM), activity in % of control” value is recorded as 21.6 % of control.

Turning to `COC[C@@H]1CCCN1C(=O)Cc1c2n(c(=S)n1C)C[C@@H](c1c(F)c(F)cc(F)c1F)C2` [Example 283, 1-((S)-2-(methoxymethyl)pyrrolidin-1-yl)-2-((R)-2-methyl-6-(2,3,5,6-tetrafluorophenyl)-3-thioxo-2,5,6,7-tetrahydro-3H-pyrrolo[1,2-c]imidazol-1-yl)ethan-1-one], the “Plasma (0.01 μM), activity in % of control” value (inhibitor 0.01 μM) is 96.0 % of control. Besides, the “Plasma (0.1 μM), activity in % of control” value (inhibitor 0.1 μM) is 72.9 % of control.

As for `Cn1c(CC(=O)N[C@@H]2CCNC2=O)c2n(c1=S)C[C@H](c1c(F)ccc(Br)c1F)C2` [Example 342, 2-((S)-6-(3-bromo-2,6-difluorophenyl)-2-methyl-3-thioxo-2,5,6,7-tetrahydro-3H-pyrrolo[1,2-c]imidazol-1-yl)-N—((R)-2-oxopyrrolidin-3-yl)acetamide], the “Plasma (0.01 μM), activity in % of control” value (inhibitor 0.01 μM) is 66.6 % of control. Besides, the “Plasma (0.1 μM), activity in % of control” value (inhibitor 0.1 μM) was 16.5 % of control.

In the case of `Cc1noc(Cc2[nH]c(=S)n3c2C[C@@H](c2c(F)ccc(Cl)c2F)C3)n1` [Example 228, (S)-6-(3-chloro-2,6-difluorophenyl)-1-((3-methyl-1,2,4-oxadiazol-5-yl)methyl)-6,7-dihydro-2H-pyrrolo[1,2-c]imidazole-3(5H)-thione], the “Plasma (0.01 μM), activity in % of control” value (inhibitor 0.01 μM) is given as 90.2 % of control. For the same compound, the “Plasma (0.1 μM), activity in % of control” value (inhibitor 0.1 μM) is given as 56.0 % of control.

As for `O=C(Cc1[nH]c(=S)n2c1C[C@H](c1c(F)c(F)cc(F)c1F)C2)N1CCC2(CC1)OCCO2` [Example 87, (R)-1-(1,4-dioxa-8-azaspiro[4.5]decan-8-yl)-2-(6-(2,3,5,6-tetrafluorophenyl)-3-thioxo-2,5,6,7-tetrahydro-3H-pyrrolo[1,2-c]imidazol-1-yl)ethan-1-one], the “Plasma (1 μM), activity in % of control” value is 13.8 % of control. Also, the “Plasma (0.1 μM), activity in % of control” value (inhibitor 0.1 μM) was 62.8 % of control.

Regarding `Cn1cc(CNC(=O)Cc2c3n(c(=S)n2C)C[C@@]2(c4cc(Cl)ccc4F)C[C@@H]32)cn1` [Example 339, 2-((5aS,6aR)-5a-(5-chloro-2-fluorophenyl)-2-methyl-3-thioxo-2,3,5,5a,6,6a-hexahydrocyclopropa[3,4]pyrrolo[1,2-c]imidazol-1-yl)-N-((1-methyl-1H-pyrazol-4-yl)methyl)acetamide], under “inhibitor 0.01 μM”, the “Plasma (0.01 μM), activity in % of control” value was 42.3 % of control. Where the note is “inhibitor 0.1 μM”, the “Plasma (0.1 μM), activity in % of control” value is recorded as 4.3 % of control.

With `CN(C(=O)Cc1c2n(c(=S)n1C)C[C@@H](c1c(F)ccc(F)c1F)C2)C1CCOC1` (stereo partly drawn) [Example 374, N-methyl-2-((R)-2-methyl-3-thioxo-6-(2,3,6-trifluorophenyl)-2,5,6,7-tetrahydro-3H-pyrrolo[1,2-c]imidazol-1-yl)-N-(tetrahydrofuran-3-yl)acetamide], the “Plasma (0.01 μM), activity in % of control” value (inhibitor 0.01 μM) is 97.4 % of control. Also, the “Plasma (0.1 μM), activity in % of control” value (inhibitor 0.1 μM) is 50.0 % of control.

`O=C(Cc1[nH]c(=S)n2c1C[C@@H](c1c(F)ccc(Cl)c1F)C2)N1CCC(F)(F)CC1` [Example 111, (S)-2-(6-(3-chloro-2,6-difluorophenyl)-3-thioxo-2,5,6,7-tetrahydro-3H-pyrrolo[1,2-c]imidazol-1-yl)-1-(4,4-difluoropiperidin-1-yl)ethan-1-one]: the “Plasma (0.01 μM), activity in % of control” value (inhibitor 0.01 μM) is given as 89.6 % of control. In addition, the “Plasma (0.1 μM), activity in % of control” value (inhibitor 0.1 μM) is listed as 36.7 % of control.

For the compound `CN1C[C@@H](NC(=O)Cc2c3n(c(=S)n2C)C[C@@H](c2c(F)ccc(F)c2F)C3)CC1=O` [Example 389, 2-((R)-2-methyl-3-thioxo-6-(2,3,6-trifluorophenyl)-2,5,6,7-tetrahydro-3H-pyrrolo[1,2-c]imidazol-1-yl)-N—((S)-1-methyl-5-oxopyrrolidin-3-yl)acetamide], the “Plasma (0.01 μM), activity in % of control” value (inhibitor 0.01 μM) is listed as 75.2 % of control. In addition, where the note is “inhibitor 0.1 μM”, the “Plasma (0.1 μM), activity in % of control” value is 33.1 % of control.
